Data reported in PubChem BioAssay AID1918953 (Molecular Pharmacology Branch, DTP, NCI, 2023).

Tested on: MDA-MB-231 complex spheroid viability
Experiment: Anticancer human tumor MDA-MB-231/ATCC cell line growth inhibition;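 note: drug exposure lasted 7 days starting on day 3 of spheroid growth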
Conditions: for IC50: curve of first compound; for viability, T/C: stronger effect = lower value
Description: Multicellular complex tumor spheroid response to LSD1 Inhibitor Iadademstat in combination with a variety of drugs and investigational agents in selected tumor cell lines
The current study was undertaken to assess response to LSD1 inhibitors in combination with standard-of-care drugs and investigational agents in solid tumor complex spheroid models as well as in the K-562 leukemia. Complex spheroids include a stromal component modeled by human endothelial cells (HUVEC) and fibroblasts modeled by human mesenchymal stem cells (MSCs). The concentration ranges selected for each drug and investigational agent were based upon clinically achievable concentrations if the clinical Cmax of the agent was known.
Compounds. The drugs and investigational agents used in this study are listed on Table 1. All of the agents used, including staurosporine (NSC755774) and gemcitabine (NSC613327), were obtained from the Developmental Therapeutics Program, NCI. FDA-approved anticancer drugs are available from the NCI at http://dtp.nci.nih.gov/branches/dscb/oncology_drugset_explanation.html. Drugs and investigational agents were >95% pure by proton nuclear magnetic resonance (NMR) and liquid chromatography/mass spectrometry (LC/MS). Stock solutions were prepared at 400x in DMSO, stored at -70 degrees C, and diluted in fresh medium prior to their use. The final concentration of DMSO in cell culture wells never exceeded 0.25% (v/v). The FDA-approved anticancer drug set is available from the Developmental Therapeutics Program at https://dtp.cancer.gov/organization/dscb/obtaining/available_plates.htm. All drugs and investigational agents were tested over a range starting from a high concentration at or near the clinical Cmax and decreasing in half-log increments. If the clinical Cmax for an agent had not been determined, the highest concentration tested was 10 microM.
Cell Lines. The patient-derived cancer cell (PDC) lines: 292921-168-R-J2-PDC, K24384-001-R-PDC, and 521955-158-R2-J5-PDC pancreatic carcinomas, 556581-035-R-J1 ovarian carcinoma, 324938-238-R-J1-PDC, 855422-203-R-J1-PDC and 883617-216-R-J1-PDC urothelial bladder carcinomas, 743489-274-T-PDC renal cell carcinoma, 138582-R-J1 Merkel cell tumor, K60290-347-R-J1 and K57222-313-R-J1-PDC glioblastomas, 653999-131-R-J2-PDC, LG0703-F948-PDC, and 349418-098-R-PDC non-small cell lung carcinomas, 885512-296-R-J2-PDC, 171881-019-R-J1-PDC breast carcinomas and 186277-243-T-J2-PDC and 233499-124-R-J2-PDC colon carcinomas were obtained from the NCI Patient-Derived Models Repository (PDMR, https://pdmr.cancer.gov). The established cell lines NCI/ADR-RES (RRID:CVCL_14520 and OVCAR-5 (RRID:CVCL_1628) ovarian carcinomas, 786-O (RRID:CVCL_1051) and A498 (RRID:CVCL_A498) renal cell carcinoma, NCI-H211 (ATCC, cat. CRL-5824; RRID:CVCL_1529), NCI-H196 (ATCC, cat. CRL-5823, RRID:CVCL_1509), SW 1271 (ATCC, cat. CRL-2177, RRID:CVCL_1716) and NCI-H1876 (ATCC, cat. CRL-5902, RRID:CVCL_1503) small cell lung carcinomas, MDA-MB-231 (RRID:CVCL_0062) and MDA-MB-468 (RRID:CVCL_0419)breast carcinomas (10-12). Pooled donor human umbilical vein endothelial cells (HUVEC, Lonza, cat. CC-2519) and human mesenchymal stem cells (hMSC, Lonza, cat. PT-2501) were purchased from Lonza (Walkersville, MD).
Cell Culture. All cells were maintained in an incubator at 37 degrees C and 5% CO2 with 95% humidity. The PDC lines were cultured according to standard operating procedures established by the NCI PDMR (https://pdmr.cancer.gov). Briefly all PDCs were thawed and cultured in Matrigel-coated flasks prepared with a working solution of 1X Ham's F-12 nutrient mix, without supplementation (Invitrogen, Waltham, MA, cat. 11765054), 100 U/mL penicillin-streptomycin (Invitrogen, cat. 15140122), and 2.5% Matrigel (Corning Inc., Corning, NY, cat. 354248) for the first three passages. […]

[1] = second compound 0.1 µM, first compound 0.0316 µM
[2] = second compound 0.1 µM, first compound 0.1 µM
[3] = second compound 0.1 µM, first compound 0.316 µM
[4] = second compound 0.1 µM, first compound 1 µM
[5] = second compound 0.1 µM, first compound 3.16 µM
[6] = second compound 0.1 µM, first compound 10 µM
[7] = second compound 0.316 µM, first compound 0.0316 µM
[8] = second compound 0.316 µM, first compound 0.1 µM
[9] = second compound 0.316 µM, first compound 0.316 µM
[10] = second compound 0.316 µM, first compound 1 µM
[11] = second compound 0.316 µM, first compound 3.16 µM
[12] = second compound 0.316 µM, first compound 10 µM
[13] = second compound 1 µM, first compound 0.0316 µM
[14] = second compound 1 µM, first compound 0.1 µM
[15] = second compound 1 µM, first compound 0.316 µM
[16] = second compound 1 µM, first compound 1 µM
[17] = second compound 1 µM, first compound 3.16 µM
[18] = second compound 1 µM, first compound 10 µM
[19] = second compound 3.16 µM, first compound 0.0316 µM
[20] = second compound 3.16 µM, first compound 0.1 µM
[21] = second compound 3.16 µM, first compound 0.316 µM
[22] = second compound 3.16 µM, first compound 1 µM
[23] = second compound 3.16 µM, first compound 3.16 µM
[24] = second compound 3.16 µM, first compound 10 µM
[25] = second compound 10 µM, first compound 0.0316 µM
[26] = second compound 10 µM, first compound 0.1 µM
[27] = second compound 10 µM, first compound 0.316 µM
[28] = second compound 10 µM, first compound 1 µM
[29] = second compound 10 µM, first compound 3.16 µM
[30] = second compound 10 µM, first compound 10 µM

SMILES	IC50 (second compound 0.1 µM) [µM]	IC50 (second compound 0.316 µM) [µM]	IC50 (second compound 1 µM) [µM]	IC50 (second compound 3.16 µM) [µM]	IC50 (second compound 10 µM) [µM]	viability, T/C [1] [%]	viability, T/C [2] [%]	viability, T/C [3] [%]	viability, T/C [4] [%]	viability, T/C [5] [%]	viability, T/C [6] [%]	viability, T/C [7] [%]	viability, T/C [8] [%]	viability, T/C [9] [%]	viability, T/C [10] [%]	viability, T/C [11] [%]	viability, T/C [12] [%]	viability, T/C [13] [%]	viability, T/C [14] [%]	viability, T/C [15] [%]	other results
CC(C)c1c(-c2ccccc2)nc2c(C#N)c[nH]n2c1=O + NC1CCC(NC2CC2c2ccccc2)CC1	> 10	> 10	> 10	> 10	> 10	108	108	101	102	105	103	109	106	106	111	110	104	101	100	102	viability, T/C [16]: 109%; viability, T/C [17]: 106%; viability, T/C [18]: 103%; viability, T/C [19]: 86.6%; viability, T/C [20]: 90.4%; viability, T/C [21]: 87.6%; viability, T/C [22]: 88.5%; viability, T/C [23]: 94.2%; viability, T/C [24]: 87.3%; viability, T/C [25]: 64.5%; viability, T/C [26]: 69.2%; viability, T/C [27]: 70.2%; viability, T/C [28]: 73.7%; viability, T/C [29]: 71.1%; viability, T/C [30]: 66.5%
CC1(C)CCC(CN2CCN(c3ccc(C(=O)NS(=O)(=O)c4ccc(NCC5CCOCC5)c([N+](=O)[O-])c4)c(Oc4cnc5[nH]ccc5c4)c3)CC2)=C(c2ccc(Cl)cc2)C1 + NC1CCC(NC2CC2c2ccccc2)CC1	6.76	6.45	5.38	3.86	0.735	100	98.6	100	102	92.6	27.8	102	103	97.3	97.3	86	27.6	98.9	95.6	99.4	viability, T/C [16]: 95.3%; viability, T/C [17]: 72.8%; viability, T/C [18]: 23.5%; viability, T/C [19]: 81.1%; viability, T/C [20]: 77.3%; viability, T/C [21]: 74.8%; viability, T/C [22]: 75%; viability, T/C [23]: 56.2%; viability, T/C [24]: 19.9%; viability, T/C [25]: 48.6%; viability, T/C [26]: 60.2%; viability, T/C [27]: 53.8%; viability, T/C [28]: 47.7%; viability, T/C [29]: 36.2%; viability, T/C [30]: 18.6%
